Experimental data from US11365200B2, “ATF3 induction compounds” (TAIPEI MEDICAL UNIVERSITY, priority 2017, dated 2022).

Assays:
ATF3 = ATF3 promoter luciferase platform (pGL4-ATF3 stable clones) for screening ATF3 inducers; format: cell-based; details: pGL4-ATF3 transfected 3T3-L1 preadipocytes and H9C2 cardiomyocytes
Text: The disclosure is directed to chromenone derivatives used as an ATF3 inducer compound and for treating and/or preventing obesity and obesity-related disorders. The compounds of this disclosure are obtained by: (1) transfecting a special DNA sequence of ATF3 (pGL4-ATF3) into 3T3-L1 preadipocytes and H9C2 cardiomyocytes; (2) using the stable clone as a platform for screening of drug for anti-obesity, anti-atherosclerosis, anti-cardiovascular disease and promotion of white-to-brown adipocyte transdifferentiation; and (3) using the platform for special drug screening. […] The invention further finds that these compounds have an inhibitory effect on obesity and obesity-induced diabetes and a facilitatory effect on white-to-brown adipocyte transdifferentiation, thereby increasing the body energy expenditure and suppressing diabetes. In addition, these compounds also can inhibit high blood pressure or hypoxia induced cardiomyopathy to increase heart function.
The invention uses a platform of ATF3 promoter luciferase to select AT3 inducer and confirms that these selected compounds can be used as anti-obesity, anti-diabetes and anti-heart disease drugs in view of the fact that these compounds have an inhibitory effect on obesity and obesity-induced diabetes and inhibition of high blood pressure or hypoxia induced cardiomyopathy, thereby increasing heart function. The platform of ATF3 promoter luciferase is created by transfecting a DNA sequence of ATF3 (pGL4-ATF3) into 3T3-L1 preadipocytes and H9C2 cardiomyocytes and using the stable clones as a platform for screening of drugs for anti-obesity, anti-atherosclerosis, anti-cardiovascular disease and promotion of white-to-brown adipocyte transdifferentiation. […]

[1] = Animal model for obesity (45% high fat diet); format: in vivo; details: HFD-fed WT mice
[2] = GTT and ITT assays in HFD-fed mice; format: in vivo; details: HFD-fed WT mice, 0.5 mg/kg/day or 1 mg/kg/day
Method: Mice were fasted overnight for 16 h before receiving an intraperitoneal administration of 1.5 g glucose/kg body weight in saline. Blood samples were collected from the tail vein by tail snipping at 0, 15, 30, 45, 60, and 120 min, and plasma glucose and insulin levels were determined from those samples. An ITT was performed on mice after 1 h of fasting. Animals were intraperitoneally injected with 1.0 U insulin/kg body weight in saline. Blood samples were drawn from the tail vein at 0, 15, 30, 45 and 60 min for the measurement of plasma glucose levels. Plasma glucose levels in blood samples collected from tail veins were determined using a commercially available glucose meter (OneTouch Ultra blood glucose meter, LifeScan, Milpitas, Calif.). After the isolation of plasma from blood samples, insulin levels were determined by ELISA (Mercodia, Winston Salem, N.C.). To evaluate the degree of insulin resistance, values were calculated using the following homeostatic model of assessment of insulin resistance (HOMA-IR) formula: fasting glucose (in mg/dl)×fasting insulin (in mU/ml)/405.)

[3] = Echocardiography after transverse aortic banding (TAB) or sham surgery; format: in vivo, mice; details: for EF / FS / IVSd / IVSs / LVIDd / LVIDs / LVPWd / LVPWs / Heart Rate: i.p. treatment twice a week, echocardiography, mean; for Heart Rate: in bpm (unit assumed)
Method: For echocardiography, mice were anesthetized with pentobarbital (40 mg/kg body weight, i.p.) and then measurements were taken with ultrasound equipment (ATL Philips IE33, Ultrasound Machine System, CA, U.S.A.) using a 15-MHz probe. The left ventricular posterior wall thickness (LVPW), inter-ventricular septum thickness (IVS), and left ventricular lumen diameter at both end-systolic and end-diastolic phases were measured digitally on the M-mode tracings and averaged for three cardiac cycles. Fractional shortening (FS) and ejection faction (EF) were then calculated.
Male mice (weighing 25-30 g) were anesthetized by intraperitoneal injection of chloral hydrate (125 mg/kg). The TAB procedure was performed according to the description by Hu et al. (Hu P, Zhang D, Swenson L, Chakrabarti G, Abel E D, and Litwin S E (2003) Minimally invasive aortic banding in mice: effects of altered cardiomyocyte insulin signaling during pressure overload. Am J Physiol Heart Circ Physiol 285:H1261-H1269). Echocardiography was performed at week 10 after TAB or sham surgery.
The experimental timeline for TAB and ST32da therapy was as follows. Mice were pre or post treated with intraperitoneal ST32da (0.2 mg/kg) twice a week from 4th to 10th week after TAB procedure. Echocardiographic measurements were performed on mice before (week 4) and after (week 10) ST32da, ST32db, ST32c therapy in both the procedure group and the nonprocedure group. Parameters, including interventricular septum thickness at diastole (IVSd) and systole (IVSs), left ventricular internal diameter at diastole (LVIDd) and systole (LVIDs), left ventricular posterior wall thickness at diastole (LVPWd) and systole (LVPWs), fractional shortening of left ventricle, ejection fraction of left ventricle (EF), and heart rate (HR) are shown.

[4] = TAB mice, week 4 to 10 after TAB

Row | SMILES | ATF3 expression (screening for ATF3 inducers) (ATF3) | TAB-induced LV dilatation ([3]; TAB mice) | contractility ([3]; TAB mice) | EF [3, 4] | FS [3, 4] | IVSd [3, 4] | IVSs [3, 4] | LVIDd [3, 4] | LVIDs [3, 4] | LVPWd [3, 4] | LVPWs [3, 4] | Heart Rate [3, 4] | EF ([3]; sham mice, week 4 to 10) | FS ([3]; sham mice, week 4 to 10) | IVSd ([3]; sham mice, week 4 to 10) | IVSs ([3]; sham mice, week 4 to 10) | LVIDd ([3]; sham mice, week 4 to 10) | LVIDs ([3]; sham mice, week 4 to 10) | LVPWd ([3]; sham mice, week 4 to 10) | LVPWs ([3]; sham mice, week 4 to 10) | also measured
1 | C[C@@H]1Oc2c(c(=O)oc3c2ccc2ccccc23)[C@H]1C [ST32da, (1R,2S)-1,2-dimethyl-1H-benzo[h]furo[3,2-c]chromen-11(2H)-one] | induction of the above-mentioned ATF3 expression | attenuated TAB-induced LV dilatation | increased contractility | 75.000% | 41.000% | 1.200 mm | 1.600 mm | 3.600 mm | 2.500 mm | 1.000 mm | 1.600 mm | 294.000 | 81.000% | 44.000% | 0.767 mm | 1.400 mm | 3.833 mm | 2.133 mm | 0.800 mm | 1.400 mm | HFD-induced obesity (percent of initial body weight) ([1]; 0.5 mg/kg/day or 1 mg/kg/day i.p., FIG. 5A left): could prevent HFD-induced obesity; adipose depot mass including iWAT, eWAT, mWAT, rWAT and BAT ([1]; 0.5 mg/kg/day or 1 mg/kg/day i.p., FIG. 5B): decreased adipose depot mass; liver weights ([1]; 0.5 mg/kg/day or 1 mg/kg/day i.p., FIG. 5C): did not affect liver weights; glucose tolerance (glucose tolerance test) ([2]; FIG. 5D): enhanced glucose tolerance; insulin sensitivity (insulin tolerance test) ([2]; FIG. 5E): improved inulin sensitivity; Heart Rate ([3]; sham mice, week 4 to 10): 303.667
2 | C[C@@H]1c2c(c3ccc4ccccc4c3oc2=O)O[C@@H]1C [ST32db, (1R,2R)-1,2-dimethyl-1H-benzo[h]furo[3,2-c]chromen-11(2H)-one] | induction of the above-mentioned ATF3 expression | attenuated TAB-induced LV dilatation | increased contractility | 84.750% | 48.250% | 1.050 mm | 1.750 mm | 3.600 mm | 1.850 mm | 1.050 mm | 1.700 mm | 301.000 | 81.667% | 44.667% | 0.800 mm | 1.533 mm | 4.067 mm | 2.233 mm | 0.800 mm | 1.433 mm | HFD-induced obesity (body weight) ([1]; 1 or 10 mg/kg/day, FIG. 6A): could prevent HFD-induced obesity; Heart Rate ([3]; sham mice, week 4 to 10): 318.500
3 | CC1Cc2c(c3ccc4ccccc4c3oc2=O)O1 (stereo not shown) [ST32c, 2-methyl-1H-benzo[h]furo[3,2-c]chromen-11(2H)-one] | induction of the above-mentioned ATF3 expression | attenuated TAB-induced LV dilatation | increased contractility | 86.500% | 54.500% | 1.350 mm | 1.950 mm | 3.350 mm | 1.700 mm | 1.350 mm | 2.000 mm | 340.000 | 79.000% | 41.333% | 0.800 mm | 1.367 mm | 3.733 mm | 2.200 mm | 0.800 mm | 1.333 mm | HFD-induced obesity (body weight) ([1]; 0.5 mg/kg/day, FIG. 7): could prevent HFD-induced obesity; Heart Rate ([3]; sham mice, week 4 to 10): 318.667
